Consider 50 compounds from patent US10494380B2, “Nitrogen-containing tricyclic derivatives having HIV replication inhibitory activity” (priority 2015, dated 2019).

pEC50: −log10 of the molar value. Read-outs that look alike come from different tables or passages of the source.

The test system of the test is T125A mutant virus (HIV-1 NL-432 recombinant molecular clone, IN gene). The experiment in a line: HIV replication inhibition assay against integrase 124/125 mutant virus (Test Example 2). In kind it is cell-based. As for the experimental part: Persistently HIV (HTLV-IIIB strain) infected human T cell strain Molt-4 clone8 was cultured in RPMI-1640 medium supplemented with 10% fetal bovine serum and the supernatant was filtered, then the virus titer was measured and stored at −80° C. Polymorphic mutations in HIV-1-infected patients have been observed in amino acids 124 and 125 on the HIV-1 integrase (IN) gene. A point mutation was introduced on the amino acids 124 and/or 125 of IN gene of the HIV-1 NL-432 recombinant molecular clone to generate a mutant virus plasmid construct. These mutant virus plasmids were transfected into 293T cells, and after two days, the supernatant was filtered and then the virus titer was measured and stored at −80° C. Each anti-HIV active substance was diluted with culture medium described above to the designated concentration, which was dispensed into 96-well microtiter plate by 50 μL. Next, 100 μL of MT-4 cell suspension (2.5×10^4 cells) was dispensed into each well, then 50 μl of HIV-containing supernatant diluted with culture medium described above was added thereto (60 pfu (plaque forming unit)).
Cells were cultured at 37° C. in CO2 incubator for four days, then 30 μL of MTT (3-(4,5-dimethylthiazole-2-yl)-2,5-diphenyltetrazolyum bromide) reagent (5 mg/mL in PBS) was added to all wells followed by incubation for 1 hour. In this step, MTT was reduced to insoluble formazan in living cells. To elute generated formazan, 150 μL of the culture supernatant was removed from all wells, then 150 μL of cell lysis solution (10% Triton X-100 and 0.4% (v/v)-HCl containing isopropanol) was added thereto, followed by shaking with a plate mixer. The formazan was measured with micro plate reader at OD: 560 nm and 690 nm (reference wavelength) and the result was compared with the reference wells. EC50 means the compound concentration at which 50% of cytotoxicity caused by virus infection is inhibited.

Where [1] appears, read: Human immunodeficiency virus 1, MT4, read-out: EC50 against T125A mutant virus, T125A mutant virus (HIV-1 NL-432 IN gene), MT-4 cells, MTT.
Setting [2] is: T125A mutant virus (HIV-1 NL-432 IN gene), MT-4 cells, MTT, read-out: EC50 against T125A mutant virus.
Where [3] appears, read: read-out: EC50 against T125A mutant virus, T125A mutant virus (HIV-1 NL-432 IN gene), MT-4 cells, MTT.

The pEC50 is the negative decadic logarithm of the EC50, by convention in mol/L. `Cc1ccc(-c2c([C@H](OC(C)(C)C)C(=O)O)c(C)c3c4c2cc(C)n4C[C@@H](C)N3CCN(C)C)cc1` [Compound I-148]: the pEC50 under setting [1] was 7.66.
On the same count and under the same terms, then `COCC(=O)N1CCn2c(C)cc3c(-c4ccc(C)cc4)c([C@H](OC(C)(C)C)C(=O)O)c(C)c1c32` [Compound I-047], with 7.34.
For `Cc1ccc(-c2c([C@H](OC(C)(C)C)C(=O)O)c(C)c3c4c2cc(C)n4CCN3c2ncc(N(C)S(C)(=O)=O)cn2)cc1` [Compound I-201], under setting [2], the pEC50 is 7.85.
For `Cc1ccc(-c2c([C@H](OC(C)(C)C)C(=O)O)c(C)c3c4c2cc(C)n4CCN3c2ncc(Oc3ccccn3)cn2)cc1` [Compound I-339], the pEC50 under setting [1] is 7.96.
As for `Cc1ccc(-c2c([C@H](OC(C)(C)C)C(=O)O)c(C)c3c4c2cc(Br)n4CCN3C)cc1` [Compound I-081], under setting [1], the pEC50 is 8.02.
Same read-out and setting: to `Cc1c([C@H](OC(C)(C)C)C(=O)O)c(-c2ccc(Cl)cc2)c2cc(C)n3c2c1N(S(C)(=O)=O)[C@@H](CF)C3` [Compound I-095] belongs 7.85; to `Cc1c([C@H](OC(C)(C)C)C(=O)O)c(-c2ccc(Cl)cc2)c2cc(C)n3c2c1N(Cc1ccncc1)CC3` [Compound I-135], 8.09.
Regarding `Cc1ccc(-c2c([C@H](OC(C)(C)C)C(=O)O)c(C)c3c4c2cc(C)n4C(C)CN3CCN(C)C)cc1` (some centres unmarked) [Compound I-163], the pEC50 under setting [3] was 7.42.
For the compound `Cc1ccc(-c2c([C@H](OC(C)(C)C)C(=O)O)c(C)c3c4c2cc(C)n4C[C@@H](C)N3CCN2CCOCC2)cc1` [Compound I-158], the pEC50 under setting [1] is 8.34.
Regarding `Cc1c([C@H](OC(C)(C)C)C(=O)O)c(-c2cc(F)c(Cl)c(F)c2)c2cc(C)n3c2c1N(C)CC3` [Compound I-073], the pEC50 under setting [1] is 7.41.
With `CC(=O)N1c2c(C)c([C@H](OC(C)(C)C)C(=O)O)c(-c3ccc(Cl)cc3)c3cc(C)n(c23)C[C@@H]1C` [Compound I-046], under setting [1], the pEC50 is 7.74.
As for `CC(=O)Nc1cnc(N2CCn3c(C)cc4c(-c5ccc(C)cc5)c([C@H](OC(C)(C)C)C(=O)O)c(C)c2c43)nc1` [Compound I-202], the pEC50 under setting [2] is 7.25.
In the case of `COCC[C@H]1Cn2c(C)cc3c(-c4ccc(Cl)cc4)c([C@H](OC(C)(C)C)C(=O)O)c(C)c(c32)N1C` [Compound I-109], the pEC50 under setting [1] was 7.82.
In the case of `Cc1ccc(-c2c([C@H](OC(C)(C)C)C(=O)O)c(Cl)c3c4c2cc(C)n4CCN3c2ncc(C)cn2)cc1` [Compound I-301], under setting [1], the pEC50 was 8.48.
As for `Cc1c([C@H](OC(C)(C)C)C(=O)O)c(-c2ccc(Cl)cc2)c2cc(C)n3c2c1NC(=O)C3C` (some centres unmarked) [Compound I-054], the pEC50 under setting [1] is 7.32.
Take `Cc1c([C@H](OC(C)(C)C)C(=O)O)c(-c2ccc(Cl)cc2)c2cc(C)n3c2c1N(S(C)(=O)=O)[C@@H](CCN1CCOCC1)C3` [Compound I-045]: under setting [1], the pEC50 is 7.24.
`Cc1c([C@H](OC(C)(C)C)C(=O)O)c(-c2ccc(Cl)cc2)c2cc(C)n3c2c1N(C)CC3C` (some centres unmarked) [Compound I-090]: the pEC50 under setting [3] is 7.41.
As for `COc1cnc(N2CCn3c(C)c(Cl)c4c(-c5ccc(C)cc5)c([C@H](OC(C)(C)CO)C(=O)O)c(C)c2c43)nc1` [Compound I-324], under setting [1], the pEC50 is 7.20.
With `Cc1ccc(-c2c([C@H](OC(C)(C)C)C(=O)O)c(C)c3c4c2cc(C)n4CCN3c2ncc(Oc3cnccn3)cn2)cc1` [Compound I-341], under setting [1], the pEC50 is 8.39.
Consider `Cc1c([C@H](OC(C)(C)C)C(=O)O)c(-c2ccc(F)cc2)c2cc(C)n3c2c1N(C)CC3C` (some centres unmarked) [Compound I-134], for which the pEC50 under setting [3] was 8.08.
In the case of `Cc1c([C@H](OC(C)(C)C)C(=O)O)c(-c2ccc(Cl)cc2)c2cc(C)n3c2c1N(Cc1ccccc1)CC3` [Compound I-107], under setting [1], the pEC50 was 7.60.
Regarding `Cc1c([C@H](OC(C)(C)C)C(=O)O)c(-c2ccc(F)cc2)c2cc(Cl)n3c2c1N(C)CC3` [Compound I-114], the pEC50 under setting [1] was 7.74.
On the same count and under the same terms, then `Cc1c([C@H](OC(C)(C)C)C(=O)O)c(-c2ccc(Cl)cc2)c2cc(C)n3c2c1N(Cc1ccccn1)CC3` [Compound I-117], with 8.07; and `Cc1c([C@H](OC(C)(C)C)C(=O)O)c(-c2ccc(Cl)cc2)c2cc(C)n3c2c1N(C(=O)C1CC1)[C@@H](C)C3` [Compound I-070], with 7.37; and `[2H]C([2H])([2H])N1CCn2c(C)cc3c(-c4ccc(Cl)cc4)c([C@H](OC(C)(C)C)C(=O)O)c(C)c1c32` [Compound I-104], with 8.39.
Same read-out and setting: to `Cc1c([C@H](OC(C)(C)C)C(=O)O)c(-c2ccc(Cl)cc2)c2cc(C)n3c2c1N(CC(F)F)CC3` [Compound I-035] belongs 7.85.
`Cc1c([C@H](OC(C)(C)C)C(=O)O)c(-c2ccc(Cl)cc2)c2cc(C)n3c2c1NC(=O)C3C` (some centres unmarked) [Compound I-055]: the pEC50 under setting [3] was 7.62.
As for `CCNC(=O)N1CCn2c(C)cc3c(-c4ccc(Cl)cc4)c([C@H](OC(C)(C)C)C(=O)O)c(C)c1c32` [Compound I-038], under setting [1], the pEC50 was 7.35.
Regarding `C=CCN1CCn2c(C)cc3c(-c4ccc(C)cc4)c([C@H](OC(C)(C)C)C(=O)O)c(C)c1c32` [Compound I-294], the pEC50 under setting [1] is 7.80.
`Cc1ccc(-c2c([C@H](OC(C)(C)C)C(=O)O)c(C)c3c4c2cc(C)n4C2(CCCC2)CN3C)cc1` [Compound I-302]: under setting [2], the pEC50 is 7.37.
As to `CCc1ccc(-c2c([C@H](OC(C)(C)C)C(=O)O)c(C)c3c4c2cc(C)n4CCN3C)cc1` [Compound I-082], the pEC50 under setting [1] was 8.21.
Consider `Cc1c([C@H](OC(C)(C)C)C(=O)O)c(-c2ccc(Cl)cc2)c2cc(C)n3c2c1N(S(=O)(=O)C1CC1)CC3` [Compound I-032], for which the pEC50 under setting [1] is 8.30.
On the same count and under the same terms, to `Cc1c([C@H](OC(C)(C)C)C(=O)O)c(-c2ccc(Cl)cc2)c2cc(C)n3c2c1N(S(=O)(=O)CCN(C)C)CC3` [Compound I-030] belongs 7.64.
`[2H]C([2H])([2H])N1c2c(C)c([C@H](OC(C)(C)C)C(=O)O)c(-c3ccc(F)cc3)c3cc(C)n(c23)C([2H])([2H])C1([2H])[2H]` [Compound I-106]: the pEC50 under setting [1] was 7.96.
As for `Cc1c([C@H](OC(C)(C)C)C(=O)O)c(-c2ccc(Cl)cc2)c2c(Cl)c(C)n3c2c1N(C)CC3` [Compound I-037], the pEC50 under setting [1] is 7.52.
`Cc1c([C@H](OC(C)(C)C)C(=O)O)c(-c2ccc(Cl)cc2)c2cc(C)n3c2c1N(CC1CC1)[C@@H](C)C3` [Compound I-083]: the pEC50 under setting [1] is 7.82.
With `Cc1ccc(-c2c([C@H](OC(C)(C)C)C(=O)O)c(C)c3c4c2cc(C)n4CCN3c2ncc(Cl)cn2)cc1` [Compound I-263], the pEC50 under setting [1] was 8.14.
With `Cc1c([C@H](OC(C)(C)C)C(=O)O)c(-c2ccc(Cl)cc2)c2cc(C)n3c2c1N(C)[C@@H](C)C3` [Compound I-053], the pEC50 under setting [1] was 8.25.
In the case of `COC(=O)N1CC(C)n2c(C)cc3c(-c4ccc(Cl)cc4)c([C@H](OC(C)(C)C)C(=O)O)c(C)c1c32` (some centres unmarked) [Compound I-120], under setting [3], the pEC50 was 7.28.
Take `Cc1c(F)cc(-c2c([C@H](OC(C)(C)C)C(=O)O)c(C)c3c4c2cc(C)n4CCN3C)cc1F` [Compound I-051]: under setting [1], the pEC50 was 7.66.
As for `Cc1ccc(-c2c([C@H](OC(C)(C)C)C(=O)O)c(C)c3c4c2cc(Cl)n4CCN3C)cc1` [Compound I-068], under setting [1], the pEC50 is 8.17.
`Cc1c([C@H](OC(C)(C)C)C(=O)O)c(-c2ccc(Cl)cc2)c2cc(C)n3c2c1N(c1ccccn1)CC3` [Compound I-125]: under setting [1], the pEC50 was 8.09.
Regarding `COC(=O)N1c2c(C)c([C@H](OC(C)(C)C)C(=O)O)c(-c3ccc(Cl)cc3)c3cc(C)n(c23)C[C@H]1C` [Compound I-111], under setting [1], the pEC50 was 8.38.
On to `Cc1c([C@H](OC(C)(C)C)C(=O)O)c(-c2ccc(Cl)cc2)c2cc(C)n3c2c1N(C)CCC3` [Compound I-079], for which the pEC50 under setting [1] is 7.77.
As to `Cc1c([C@H](OC(C)(C)C)C(=O)O)c(-c2ccc(Cl)cc2)c2cc(C)n3c2c1N(S(C)(=O)=O)CC3C` (some centres unmarked) [Compound I-063], under setting [3], the pEC50 is 8.35.
Take `COCC[C@@H]1Cn2c(C)cc3c(-c4ccc(Cl)cc4)c([C@H](OC(C)(C)C)C(=O)O)c(C)c(c32)N1S(C)(=O)=O` [Compound I-108]: the pEC50 under setting [1] was 7.72.
As to `Cc1c([C@H](OC(C)(C)C)C(=O)O)c(-c2ccc(Cl)cc2)c2cc(C)n3c2c1N(S(C)(=O)=O)[C@@H](C(F)F)C3` [Compound I-088], the pEC50 under setting [1] is 7.57.
As for `COc1ccc(-c2c([C@H](OC(C)(C)C)C(=O)O)c(C)c3c4c2cc(C)n4CCN3C)cc1` [Compound I-074], the pEC50 under setting [1] was 7.57.
`COc1cc(Oc2cnc(N3CCn4c(C)cc5c(-c6ccc(C)cc6)c([C@H](OC(C)(C)C)C(=O)O)c(C)c3c54)nc2)nc(OC)n1` [Compound I-346]: the pEC50 under setting [1] was 8.00.
Take `Cc1coc(N2CCn3c(C)cc4c(-c5ccc(Cl)cc5)c([C@H](OC(C)(C)C)C(=O)O)c(C)c2c43)n1` [Compound I-150]: the pEC50 under setting [1] was 7.82.
